Measurements taken from ChEMBL document CHEMBL1275557, “First countrywide survey of acquired metallo-beta-lactamases in gram-negative pathogens in Italy” (2008).
In brackets after ≈: the same amount, converted by molar mass.

Columns and labels:
Type in all cases: functional
[1] = tested on: Pseudomonas aeruginosa; assay: Antibacterial activity against VIM-1 producing Pseudomonas aeruginosa clone E isolate VA-06X-29 by Etest method
[2] = tested on: Pseudomonas aeruginosa; assay: Antibacterial activity against VIM-2 producing Pseudomonas aeruginosa clone B3 isolate PV-05X-02 by Etest method
[3] = tested on: Enterobacter cloacae; assay: Antibacterial activity against VIM-1 producing Enterobacter cloacae isolate TO-16X-51 by Etest method in presence of Tazobactam
[4] = tested on: Pseudomonas aeruginosa; assay: Antibacterial activity against VIM-1 producing Pseudomonas aeruginosa clone D3 isolate VA-06X-65 by Etest method in presence of Tazobactam
[5] = tested on: Pseudomonas putida; assay: Antibacterial activity against VIM-1 producing Pseudomonas putida isolate RM-11X-11 by Etest method
[6] = tested on: Pseudomonas aeruginosa; assay: Antibacterial activity against IMP-13 producing Pseudomonas aeruginosa clone C2 isolate NA-14X-10 by Etest method in presence of Tazobactam
[7] = tested on: Pseudomonas aeruginosa; assay: Antibacterial activity against IMP-13 producing Pseudomonas aeruginosa clone C3 isolate PG-12X-03 by Etest method
[8] = tested on: Pseudomonas aeruginosa; assay: Antibacterial activity against VIM-1 producing Pseudomonas aeruginosa clone G isolate NA-14X-13 by Etest method in presence of Tazobactam
[9] = tested on: Pseudomonas aeruginosa; assay: Antibacterial activity against VIM-1 producing Pseudomonas aeruginosa clone D isolate VA-06X-69 by Etest method in presence of Tazobactam
[10] = tested on: Pseudomonas aeruginosa; assay: Antibacterial activity against VIM-2 producing Pseudomonas aeruginosa clone B3 isolate CR-04X-14 by Etest method
[11] = tested on: Pseudomonas aeruginosa; assay: Antibacterial activity against IMP-13 producing Pseudomonas aeruginosa clone C2 isolate NA-14X-02 by Etest method in presence of Tazobactam
[12] = tested on: Pseudomonas aeruginosa; assay: Antibacterial activity against VIM-2 producing Pseudomonas aeruginosa clone B3 isolate CR-04X-14 by Etest method in presence of Tazobactam
[13] = tested on: Pseudomonas putida; assay: Antibacterial activity against VIM-1 producing Pseudomonas putida isolate RM-11X-11 by Etest method in presence of Tazobactam
[14] = tested on: Pseudomonas aeruginosa; assay: Antibacterial activity against VIM-2 producing Pseudomonas aeruginosa clone B2 isolate VA-06X-28 by Etest method in presence of Tazobactam
[15] = tested on: Enterobacter cloacae; assay: Antibacterial activity against VIM-1 producing Enterobacter cloacae isolate TO-16X-51 by Etest method
[16] = tested on: Pseudomonas aeruginosa; assay: Antibacterial activity against VIM-1 producing Pseudomonas aeruginosa clone A3 isolate FG-17X-08 by Etest method
[17] = tested on: Pseudomonas aeruginosa; assay: Antibacterial activity against VIM-1 producing Pseudomonas aeruginosa clone D4 isolate VA-06X-47 by Etest method in presence of Tazobactam
[18] = tested on: Pseudomonas aeruginosa; assay: Antibacterial activity against VIM-1 producing Pseudomonas aeruginosa clone F isolate RM-11X-09 by Etest method
[19] = tested on: Pseudomonas aeruginosa; assay: Antibacterial activity against VIM-1 producing Pseudomonas aeruginosa clone A2 isolate NA-14X-21 by Etest method in presence of Tazobactam
[20] = tested on: Pseudomonas aeruginosa; assay: Antibacterial activity against VIM-1 producing Pseudomonas aeruginosa clone E isolate VA-06X-29 by Etest method in presence of Tazobactam
[21] = tested on: Pseudomonas aeruginosa; assay: Antibacterial activity against VIM-1 producing Pseudomonas aeruginosa clone D1 isolate VA-06X-63 by Etest method in presence of Tazobactam
[22] = tested on: Pseudomonas aeruginosa; assay: Antibacterial activity against VIM-2 producing Pseudomonas aeruginosa clone B2 isolate VA-06X-20 by Etest method in presence of Tazobactam
[23] = tested on: Pseudomonas aeruginosa; assay: Antibacterial activity against IMP-13 producing Pseudomonas aeruginosa clone C2 isolate NA-14X-11 by Etest method
[24] = tested on: Pseudomonas aeruginosa; assay: Antibacterial activity against VIM-1 producing Pseudomonas aeruginosa clone G isolate NA-14X-13 by Etest method
[25] = tested on: Pseudomonas aeruginosa; assay: Antibacterial activity against VIM-1 producing Pseudomonas aeruginosa clone A3 isolate FG-17X-08 by Etest method in presence of Tazobactam
[26] = tested on: Pseudomonas aeruginosa; assay: Antibacterial activity against VIM-1 producing Pseudomonas aeruginosa clone A1 isolate FG-17X-14 by Etest method
[27] = tested on: Pseudomonas aeruginosa; assay: Antibacterial activity against VIM-1 producing Pseudomonas aeruginosa clone A2 isolate NA-14X-26 by Etest method in presence of Tazobactam
[28] = tested on: Pseudomonas aeruginosa; assay: Antibacterial activity against VIM-2 producing Pseudomonas aeruginosa clone B3 isolate PV-05X-02 by Etest method in presence of Tazobactam
[29] = tested on: Pseudomonas aeruginosa; assay: Antibacterial activity against VIM-1 producing Pseudomonas aeruginosa clone D isolate VA-06X-69 by Etest method
[30] = tested on: Pseudomonas aeruginosa; assay: Antibacterial activity against IMP-13 producing Pseudomonas aeruginosa clone C3 isolate PG-12X-03 by Etest method in presence of Tazobactam
[31] = tested on: Pseudomonas aeruginosa; assay: Antibacterial activity against VIM-2 producing Pseudomonas aeruginosa clone B2 isolate VA-06X-28 by Etest method
[32] = tested on: Pseudomonas aeruginosa; assay: Antibacterial activity against IMP-13 producing Pseudomonas aeruginosa clone C2 isolate NA-14X-12 by Etest method
[33] = tested on: Pseudomonas aeruginosa; assay: Antibacterial activity against VIM-2 producing Pseudomonas aeruginosa clone B1 isolate SS-09X-45 by Etest method in presence of Tazobactam
[34] = tested on: Pseudomonas aeruginosa; assay: Antibacterial activity against metallo-beta-lactamase positive Pseudomonas aeruginosa assessed as percent susceptible isolates by Etest method in presence of Tazobactam
[35] = tested on: Pseudomonas aeruginosa; assay: Antibacterial activity against VIM-1 producing Pseudomonas aeruginosa clone D1 isolate VA-06X-63 by Etest method
[36] = tested on: Pseudomonas aeruginosa; assay: Antibacterial activity against VIM-2 producing Pseudomonas aeruginosa clone B2 isolate VA-06X-20 by Etest method
[37] = tested on: Pseudomonas aeruginosa; assay: Antibacterial activity against VIM-1 producing Pseudomonas aeruginosa clone D2 isolate VA-06X-17 by Etest method
[38] = tested on: Pseudomonas aeruginosa; assay: Antibacterial activity against VIM-1 producing Pseudomonas aeruginosa clone D2 isolate VA-06X-16 by Etest method in presence of Tazobactam
[39] = tested on: Pseudomonas aeruginosa; assay: Antibacterial activity against VIM-2 producing Pseudomonas aeruginosa clone B2 isolate VA-06X-38 by Etest method in presence of Tazobactam
[40] = tested on: Pseudomonas aeruginosa; assay: Antibacterial activity against VIM-1 producing Pseudomonas aeruginosa clone A2 isolate NA-14X-21 by Etest method
[41] = tested on: Pseudomonas aeruginosa; assay: Antibacterial activity against VIM-2 producing Pseudomonas aeruginosa clone B2 isolate VA-06X-38 by Etest method
[42] = tested on: Pseudomonas aeruginosa; assay: Antibacterial activity against IMP-13 producing Pseudomonas aeruginosa clone C1 isolate AV-13X-28 by Etest method
[43] = tested on: Pseudomonas aeruginosa; assay: Antibacterial activity against VIM-1 producing Pseudomonas aeruginosa clone A3 isolate NA-14X-34 by Etest method in presence of Tazobactam
[44] = tested on: Pseudomonas aeruginosa; assay: Antibacterial activity against VIM-2 producing Pseudomonas aeruginosa clone B3 isolate PV-05X-07 by Etest method in presence of Tazobactam
[45] = tested on: Pseudomonas aeruginosa; assay: Antibacterial activity against VIM-1 producing Pseudomonas aeruginosa clone D2 isolate VA-06X-16 by Etest method
[46] = tested on: Pseudomonas aeruginosa; assay: Antibacterial activity against VIM-1 producing Pseudomonas aeruginosa clone D4 isolate VA-06X-47 by Etest method
[47] = tested on: Pseudomonas aeruginosa; assay: Antibacterial activity against IMP-13 producing Pseudomonas aeruginosa clone C2 isolate NA-14X-11 by Etest method in presence of Tazobactam
[48] = tested on: Pseudomonas aeruginosa; assay: Antibacterial activity against VIM-1 producing Pseudomonas aeruginosa clone A2 isolate NA-14X-32 by Etest method
[49] = tested on: Pseudomonas aeruginosa; assay: Antibacterial activity against VIM-1 producing Pseudomonas aeruginosa clone A2 isolate NA-14X-26 by Etest method
[50] = tested on: Pseudomonas aeruginosa; assay: Antibacterial activity against VIM-1 producing Pseudomonas aeruginosa clone A1 isolate FG-17X-14 by Etest method in presence of Tazobactam
[51] = tested on: Pseudomonas aeruginosa; assay: Antibacterial activity against IMP-13 producing Pseudomonas aeruginosa clone C2 isolate NA-14X-12 by Etest method in presence of Tazobactam
[52] = tested on: Pseudomonas aeruginosa; assay: Antibacterial activity against IMP-13 producing Pseudomonas aeruginosa clone C2 isolate NA-14X-02 by Etest method
[53] = tested on: Pseudomonas aeruginosa; assay: Antibacterial activity against VIM-2 producing Pseudomonas aeruginosa clone B1 isolate SS-09X-45 by Etest method
[54] = tested on: Pseudomonas aeruginosa; assay: Antibacterial activity against IMP-13 producing Pseudomonas aeruginosa clone C1 isolate AV-13X-28 by Etest method in presence of Tazobactam
[55] = tested on: Pseudomonas aeruginosa; assay: Antibacterial activity against VIM-1 producing Pseudomonas aeruginosa clone D2 isolate VA-06X-17 by Etest method in presence of Tazobactam
[56] = tested on: Pseudomonas aeruginosa; assay: Antibacterial activity against IMP-13 producing Pseudomonas aeruginosa clone C2 isolate NA-14X-10 by Etest method
[57] = tested on: Pseudomonas aeruginosa; assay: Antibacterial activity against VIM-1 producing Pseudomonas aeruginosa clone A3 isolate NA-14X-34 by Etest method
[58] = tested on: Pseudomonas aeruginosa; assay: Antibacterial activity against VIM-1 producing Pseudomonas aeruginosa clone A2 isolate NA-14X-32 by Etest method in presence of Tazobactam
[59] = tested on: Pseudomonas aeruginosa; assay: Antibacterial activity against VIM-1 producing Pseudomonas aeruginosa clone F isolate RM-11X-09 by Etest method in presence of Tazobactam
[60] = tested on: Pseudomonas aeruginosa; assay: Antibacterial activity against VIM-2 producing Pseudomonas aeruginosa clone B3 isolate PV-05X-07 by Etest method
[61] = tested on: Pseudomonas aeruginosa; assay: Antibacterial activity against VIM-1 producing Pseudomonas aeruginosa clone D3 isolate VA-06X-65 by Etest method

CCN1CCN(C(=O)N[C@@H](C(=O)N[C@@H]2C(=O)N3[C@@H]2SC(C)(C)[C@@H]3C(=O)O)c2ccccc2)C(=O)C1=O [PIPERACILLIN]
MIC [1]: > 128 µg/mL | MIC [2]: 48 µg/mL (≈ 92.7 µM) | MIC [3]: > 128 µg/mL | MIC [4]: > 128 µg/mL | MIC [5]: > 128 µg/mL | MIC [6]: 16 µg/mL | MIC [7]: 16 µg/mL (≈ 30.9 µM) | MIC [8]: > 128 µg/mL | MIC [9]: > 128 µg/mL | MIC [10]: > 128 µg/mL | MIC [11]: 16 µg/mL | MIC [12]: > 128 µg/mL | MIC [13]: > 128 µg/mL | MIC [14]: 48 µg/mL | MIC [15]: > 128 µg/mL | MIC [16]: > 128 µg/mL | MIC [17]: > 128 µg/mL | MIC [18]: > 128 µg/mL | MIC [19]: > 128 µg/mL | MIC [20]: > 128 µg/mL | MIC [21]: > 128 µg/mL | MIC [22]: 48 µg/mL | MIC [23]: 16 µg/mL (≈ 30.9 µM) | MIC [24]: > 128 µg/mL | MIC [25]: > 128 µg/mL | MIC [26]: > 128 µg/mL | MIC [27]: > 128 µg/mL | MIC [28]: 32 µg/mL | MIC [29]: > 128 µg/mL | MIC [30]: 16 µg/mL | MIC [31]: 64 µg/mL (≈ 124 µM) | MIC [32]: 16 µg/mL (≈ 30.9 µM) | MIC [33]: > 128 µg/mL | Activity [34]: 39% | MIC [35]: > 128 µg/mL | MIC [36]: 64 µg/mL (≈ 124 µM) | MIC [37]: > 128 µg/mL | MIC [38]: > 128 µg/mL | MIC [39]: 32 µg/mL | MIC [40]: > 128 µg/mL | MIC [41]: 32 µg/mL (≈ 61.8 µM) | MIC [42]: 24 µg/mL (≈ 46.4 µM) | MIC [43]: > 128 µg/mL | MIC [44]: 32 µg/mL | MIC [45]: > 128 µg/mL | MIC [46]: > 128 µg/mL | MIC [47]: 16 µg/mL | MIC [48]: > 128 µg/mL | MIC [49]: > 128 µg/mL | MIC [50]: > 128 µg/mL | MIC [51]: 16 µg/mL | MIC [52]: 24 µg/mL (≈ 46.4 µM) | MIC [53]: > 128 µg/mL | MIC [54]: 16 µg/mL | MIC [55]: > 128 µg/mL | MIC [56]: 16 µg/mL (≈ 30.9 µM) | MIC [57]: > 128 µg/mL | MIC [58]: > 128 µg/mL | MIC [59]: > 128 µg/mL | MIC [60]: 48 µg/mL (≈ 92.7 µM) | MIC [61]: > 128 µg/mL
